In patent US20260125382A1, “COMPOUNDS FOR INHIBITING OR DEGRADING CDK2 AND/OR CDK9 AND MEDICINAL USE THEREOF” (KOREA RESEARCH INSTITUTE OF CHEMICAL TECHNOLOGY, priority 2022, published 2026):

Key:
CDK9 = target: T1, CDK9 (Homo sapiens, UniProt P50750); experiment: CDK protein degradation activity (Western blotting), CDK9; type: cell-based; conditions: MDA-MB-231 cells, 16 hours, Western blot
T1 construct: endogenous in cells; host or cells: MDA-MB-231
Procedure, shortened: (§1)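 MDA-MB-231 cells treated 16 h with compound at 100 nM, 1 μM or 10 μM, with DMSO as control. Lysates run on SDS-PAGE and immunoblotted for CDK2, CDK9 and tubulin; band levels quantified by densitometry.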

CDK2 = target: T2, CDK2 (Homo sapiens, UniProt P24941); experiment: CDK protein degradation activity (Western blotting), CDK2; type: cell-based; conditions: MDA-MB-231 cells, 16 hours, Western blot
T2 construct: endogenous in cells; host or cells: MDA-MB-231
Procedure, shortened: as §1

T1 sequence (P50750 whole entry): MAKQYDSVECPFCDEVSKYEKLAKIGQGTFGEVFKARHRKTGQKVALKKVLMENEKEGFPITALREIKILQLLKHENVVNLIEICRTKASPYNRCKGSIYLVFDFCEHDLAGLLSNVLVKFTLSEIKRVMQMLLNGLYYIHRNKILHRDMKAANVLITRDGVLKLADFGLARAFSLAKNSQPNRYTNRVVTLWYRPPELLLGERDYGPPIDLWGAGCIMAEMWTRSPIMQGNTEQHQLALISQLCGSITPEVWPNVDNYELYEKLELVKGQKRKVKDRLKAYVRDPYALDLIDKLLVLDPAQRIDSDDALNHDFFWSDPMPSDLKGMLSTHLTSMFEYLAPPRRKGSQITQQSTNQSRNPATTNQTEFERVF

SMILES	Enzyme degradation CDK9 (% remaining) @ 0.1 μM (CDK9)	Enzyme degradation CDK9 (% remaining) @ 1 μM (CDK9)	Enzyme degradation CDK9 (% remaining) @ 10 μM (CDK9)	Enzyme degradation CDK2 (% remaining) @ 0.1 μM (CDK2)	Enzyme degradation CDK2 (% remaining) @ 1 μM (CDK2)	Enzyme degradation CDK2 (% remaining) @ 10 μM (CDK2)
O=C1CC[C@H](n2nnc3ccc(N4CCN(CC5CCN(c6ccc(Nc7ncnc8c7ncn8C7CC(NC(=O)Cc8ccccc8)C7)cc6)CC5)CC4)cc3c2=O)C(=O)N1 (stereo partly drawn) [Compound 320, N-((1s,3s)-3-(6-((4-(4-((4-(3-(2,6-dioxopiperidin-3-yl)-4-oxo-3,4-dihydrobenzo[d][1,2,3]triazin-6-yl)piperazin-1-yl)methyl)piperidin-1-yl)phenyl)amino)-9H-purin-9-yl)cyclobutyl)-2-phenylacetamide]	80%	10%	10%	20%	0%	0%
O=C1CC[C@H](n2nnc3ccc(N4CCN(CC5CCN(c6ccc(Nc7ncnc8c7ncn8C7CC(NC(=O)c8c(Cl)cccc8Cl)C7)cc6)CC5)CC4)cc3c2=O)C(=O)N1 (stereo partly drawn) [Compound 370, 2,6-dichloro-N-((1s,3s)-3-(6-((4-(4-((4-(3-(2,6-dioxopiperidin-3-yl)-4-oxo-3,4-dihydrobenzo[d][1,2,3]triazin-6-yl)piperazin-1-yl)methyl)piperidin-1-yl)phenyl)amino)-9H-purin-9-yl)cyclobutyl)benzamide]	0/0/0%	0/0/0%	0/0/0%	0/0/0%	0/0/0%	0/0/0%
Cc1cccc(C(=O)N[C@H]2C[C@@H](n3cnc4c(NC5CCN(CCCN6CCN(C(=O)CNc7cccc8c7C(=O)N([C@H]7CCC(=O)NC7=O)C8=O)CC6)CC5)ncnc43)C2)n1 [Compound 38, N-((1s,3s)-3-(6-((1-(3-(4-((2-(2,6-dioxopiperidin-3-yl)-1,3-dioxoisoindolin-4-yl)glycyl)piperazin-1-yl)propyl)piperidin-4-yl)amino)-9H-purin-9-yl)cyclobutyl)-6-methylpicolinamide]	0/0/0%	0/0/0%	0/0/0%	40%	30%	20%
Cc1cccc(C(=O)N[C@H]2C[C@@H](n3cnc4c(NCc5cccc(OCCCN6CCN(C(=O)CNc7ccc8c(c7)C(=O)N([C@H]7CCC(=O)NC7=O)C8=O)CC6)c5)ncnc43)C2)n1 [Compound 102, N-((1s,3s)-3-(6-((3-(3-(4-((2-(2,6-dioxopiperidin-3-yl)-1,3-dioxoisoindolin-5-yl)glycyl)piperazin-1-yl)propoxy)benzyl)amino)-9H-purin-9-yl)cyclobutyl)-6-methylpicolinamide]	90%	20%	10%	100%	70%	70%
O=C1CCC(N2C(=O)c3ccc(N4CCC(CN5CCC(CCNc6ncnc7c6ncn7[C@H]6C[C@@H](NC(=O)c7c(Cl)cccc7Cl)C6)CC5)CC4)cc3C2=O)C(=O)N1 (stereo partly drawn) [Compound 396, 2,6-dichloro-N-((1s,3s)-3-(6-((2-(1-((1-(2-(2,6-dioxopiperidin-3-yl)-1,3-dioxoisoindolin-5-yl)piperidin-4-yl)methyl)piperidin-4-yl)ethyl)amino)-9H-purin-9-yl)cyclobutyl)benzamide]	20/20/20%	20/20/20%	20/20/20%	20%	30%	30%
Cc1cccc(C(=O)NC2CC(n3cnc4c(NCCCN5CCN(CC6CCN(C(=O)COc7ccc8c(c7)C(=O)N([C@@H]7CCC(=O)NC7=O)C8=O)CC6)CC5)ncnc43)C2)n1 (stereo partly drawn) [Compound 144, N-((1r,3r)-3-(6-((3-(4-((1-(2-((2-(2,6-dioxopiperidin-3-yl)-1,3-dioxoisoindolin-5-yl)oxy)acetyl)piperidin-4-yl)methyl)piperazin-1-yl)propyl)amino)-9H-purin-9-yl)cyclobutyl)-6-methylpicolinamide]	80%	10%	0%	100%	70%	70%
O=C1CC[C@H](N2C(=O)c3ccc(NCC(=O)N4CCC(CN5CCC(c6ccc(Nc7ncnc8c7ncn8C7CC(NC(=O)Cc8ccccc8)C7)cc6)CC5)CC4)cc3C2=O)C(=O)N1 (stereo partly drawn) [Compound 290, N-((1s,3s)-3-(6-((4-(1-((1-((2-(2,6-dioxopiperidin-3-yl)-1,3-dioxoisoindolin-5-yl)glycyl)piperidin-4-yl)methyl)piperidin-4-yl)phenyl)amino)-9H-purin-9-yl)cyclobutyl)-2-phenylacetamide]	10%	0%	0%	20%	20%	30%
Cc1cccc(C(=O)NC2CC(n3cnc4c(Nc5ccc(N6CCN(CC7CCN(c8ccc9nnn([C@H]%10CCC(=O)NC%10=O)c(=O)c9c8)CC7)CC6)cc5C)ncnc43)C2)n1 (stereo partly drawn) [Compound 478, N-((1s,3s)-3-(6-((4-(4-((1-(3-(2,6-dioxopiperidin-3-yl)-4-oxo-3,4-dihydrobenzo[d][1,2,3]triazin-6-yl)piperidin-4-yl)methyl)piperazin-1-yl)-2-methylphenyl)amino)-9H-purin-9-yl)cyclobutyl)-6-methylpicolinamide]	20/20/20%	20/20/20%	20/20/20%	10%	20%	20%
Cc1cccc(C(=O)N[C@H]2C[C@@H](n3cnc4c(NC5CCN(CCOC6CCN(c7ccc8c(c7)C(=O)N([C@H]7CCC(=O)NC7=O)C8=O)CC6)CC5)ncnc43)C2)n1 [Compound 47, N-((1s,3s)-3-(6-((1-(2-((1-(2-(2,6-dioxopiperidin-3-yl)-1,3-dioxoisoindolin-5-yl)piperidin-4-yl)oxy)ethyl)piperidin-4-yl)amino)-9H-purin-9-yl)cyclobutyl)-6-methylpicolinamide]	40%	0%	0%	100/100/100%	100/100/100%	100/100/100%
O=C1CC[C@H](N2C(=O)c3ccc(N4CCC(CN5CCC(c6ccc(Nc7ncnc8c7ncn8[C@H]7C[C@@H](NC(=O)Cc8ccccc8)C7)cc6)CC5)CC4)cc3C2=O)C(=O)N1 [Compound 292, N-((1s,3s)-3-(6-((4-(1-((1-(2-(2,6-dioxopiperidin-3-yl)-1,3-dioxoisoindolin-5-yl)piperidin-4-yl)methyl)piperidin-4-yl)phenyl)amino)-9H-purin-9-yl)cyclobutyl)-2-phenylacetamide]	10%	0%	0%	10/10/10%	10/10/10%	10/10/10%
Cc1cccc(C(=O)NC2CC(n3cnc4c(NCCC5CCN(CC6CCN(c7ccc8c(c7)C(=O)N([C@H]7CCC(=O)NC7=O)C8=O)CC6)CC5)ncnc43)C2)n1 (stereo partly drawn) [Compound 308, N-((1s,3s)-3-(6-((2-(1-((1-(2-(2,6-dioxopiperidin-3-yl)-1,3-dioxoisoindolin-5-yl)piperidin-4-yl)methyl)piperidin-4-yl)ethyl)amino)-9H-purin-9-yl)cyclobutyl)-6-methylpicolinamide]	20%	0%	20%	40%	30%	30%
O=C1CC[C@H](N2C(=O)c3cccc(N4CCN(CCCN5CCN(c6ccc(Nc7ncnc8c7ncn8C7CC(NC(=O)Cc8ccccc8)C7)cc6)CC5)CC4)c3C2=O)C(=O)N1 (stereo partly drawn) [Compound 238, N-((1s,3s)-3-(6-((4-(4-(3-(4-(2-(2,6-dioxopiperidin-3-yl)-1,3-dioxoisoindolin-4-yl)piperazin-1-yl)propyl)piperazin-1-yl)phenyl)amino)-9H-purin-9-yl)cyclobutyl)-2-phenylacetamide]	70%	20%	0%	100%	80%	50%
CC(=O)N[C@H]1C[C@@H](n2cnc3c(NCc4ccc(N5CCN(CC6CCN(C(=O)CNc7ccc8c(c7)C(=O)N([C@H]7CCC(=O)NC7=O)C8=O)CC6)CC5)cc4)ncnc32)C1 [Compound 161, N-((1s,3s)-3-(6-((4-(4-((1-((2-(2,6-dioxopiperidin-3-yl)-1,3-dioxoisoindolin-5-yl)glycyl)piperidin-4-yl)methyl)piperazin-1-yl)benzyl)amino)-9H-purin-9-yl)cyclobutyl)acetamide]	30%	10%	10%	90%	80%	60%
